The source of these data is paper PMC12480552 (Scientific Reports, 2025).

The subject of data set [1] is human P-gp. The following applies: MDCKII cells overexpressing human P-gp; cited from earlier work.
A short description of data set [2]: Protein binding by rapid equilibrium dialysis, rhesus macaque brain and plasma. The following applies: rhesus monkey, pH 7.4. The source says: (§1) The luciferase-transfected human breast cancer cell line (MDA231-BrM2-831) was purchased from Memorial Sloan Kettering Cancer Center (New York, NY). […] Deuterated olaparib (olaparib-d8) was purchased from Alsachim (Illkirch Graffenstaden, France). Cynomolgus macaque brain tissue (lot #CYN252598), rhesus macaque brain tissue (lot #RHS24901), rhesus macaque plasma (lot #RHS24900), CD1 mouse brain tissue (lot #MSE343926), and CD1 mouse plasma (lot #MSE343926) used in the protein-binding assays were obtained from BioIVT (Westbury, NY).
(§2) Brain (diluted 1:4 [5×] in PBS) or plasma (undiluted) were spiked with each test compound and applied to each matrix. Aliquots of each mixture were added to the donor wells of a rapid equilibrium dialysis plate in triplicate, and blank PBS was added to each receiver well, at volumes recommended by the manufacturer. Plates were incubated with shaking at 200 rpm for 4 h at 37 °C. At the end of incubation, samples were collected from each donor and receiver well. Samples were matrix-matched with the addition of an equivalent volume of blank matrix to each receiver sample and blank PBS to each donor sample. Additional samples were collected from each incubation mixture at the beginning (T = 0 min) and end (T = 240 min) of incubation for determination of stability, and matrix-matched with PBS as described above. The resultant samples were extracted by protein precipitation with acetonitrile containing an analytical internal standard, centrifuged, and analyzed by LC-MS/MS.

A short description of data set [3]: LC-MS/MS bioanalysis of plasma and brain homogenate, mouse model of brain metastasis (MDA231-BrM2-831). The class given is in vivo, NCr nude mice. The following applies: for Kp at 2 h / Kp uu at 2 h / concentration at 2 h: female, NCr nude (CrTac:NCr-Foxn1nu), mouse, oral; for concentration at 2 h: oral once daily 5 days, niraparib 35 mg/kg or olaparib 50 mg/kg, 2 h after final dose. From the text: A luciferase-transfected human breast adenocarcinoma cell line (MDA 231-BRM2-831) was used to generate a metastatic brain tumor model in female athymic nude mice. […] NCr nude mice (strain: CrTac: NCr-Foxn1^nu; female; 5–7 weeks old; Taconic Biosciences (Germantown, NY)) were used for these studies. A power analysis was completed by a statistician to determine the appropriate sample sizes for each group to measure a statistically significant. […] Control mice (n = 10) underwent a sham IC procedure (needle insertion into the ventricle without cell injection. All mice were monitored for tumor development by bioluminescence imaging (BLI) approximately once weekly for ~ 45 days, beginning 1 h after cell injection. In vivo BLI was performed at ~ 10 min post-luciferin injection (corresponding to the peak bioluminescent signal) using an IVIS Spectrum-CT system (PerkinElmer, Waltham, MA). Imaging parameters were set to automatic exposure in the Living Image software, while the binning (8) and aperture (open f-stop) remained at the default settings for all BLI acquisitions. The imaging frequency was increased to twice weekly for mice that developed brain metastases (BMs) as indicated by increased bioluminescence in the cranial region. […] The exact tumor size was not measured as an endpoint of this study. […] Two hours after the final dose, mice were euthanized by CO2 asphyxiation. At necropsy, a terminal blood sample was collected via cardia puncture, and the brains were harvested and snap-frozen by floating on liquid nitrogen. […] From each plane, serial tissue sections were collected for MALDI MSI and for H&E staining, and immunohistochemistry (IHC) staining. Tissue trimmings from between each plane were collected, homogenized, and submitted for bioanalysis in addition to the terminal plasma samples.

Data set [4] is described as follows: Protein binding by rapid equilibrium dialysis, CD1 mouse brain and plasma. The settings on record: pH 7.4.
Source text: as §1, §2

Data set [5] is described as follows: in vivo. The protocol: Female C57BL/6 mice were inoculated intracranially on the right side of the brain in the right frontal lobe with mouse glioblastoma (GL261) tumor cells (≈ 2 × 10^5) in 3 µL of phosphate-buffered saline for the tumor development. Mice were observed daily for clinical signs, and any mouse meeting predefined criteria for moribund status was euthanized. Criteria for moribund sacrifice included: ≥ 20% body weight loss or severe neurological symptoms (e.g., prostration, paralysis, seizures, hemorrhage).
Mice were euthanized by CO2 asphyxiation.
Brain tissue was weighed in polypropylene tubes, then PBS was added to the tissue sample before homogenization (1:4 wt: vol).
The LC-MS/MS system included an API-6500 triple quadrupole mass spectrometer (Sciex). Data were acquired and processed using Analyst® 1.7.2 software (Sciex). An Acquity UHPLC BEH C18 analytical column (1.7-µm, 2.1 × 50 mm; Waters) was applied in sample analysis.
For olaparib, the LLQ was 5.00 ng/mL, and the HLQ was 1000 ng/mL.
First, the brain tissue partition coefficient Kp, brain was calculated using Eq. (1).
Where Css, brain is the mean steady-state total drug concentration in brain tissue, and Css, plasma is the mean steady-state total drug concentration in plasma (both measured by LC-MS/MS). […] Finally, Kp, uu, brain was calculated using Eq. (2).2 [drawing 2]

Setting [6] is: brain, BM mice (niraparib n = 4, olaparib n = 3), read-out: Group mean (SD) Kp, brain.
[7] abbreviates: brain, BM mice (niraparib n = 4, olaparib n = 3), read-out: Group mean (SD) Kp, uu, brain.
[8] abbreviates: brain, No BM mice (n = 3), read-out: LC-MS/MS Bulk brain tissue, mean (SD).
The mark [9] stands for this setting: brain, No BM mice (n = 3), read-out: Group mean (SD) Kp, brain.
Where [10] appears, read: brain, No BM mice (n = 3), read-out: Group mean (SD) Kp, uu, brain.
Where [11] appears, read: brain, all mice (BM and no-BM combined), read-out: Mean Kp, brain.
Where [12] appears, read: brain, all mice (BM and no-BM combined), read-out: Mean Kp, uu, brain.
The mark [13] stands for this setting: plasma, No BM mice (n = 3), read-out: LC-MS/MS Terminal plasma, mean (SD).
Setting [14] is: female, C57BL/6, mouse, brain tumor, oral.
The mark [15] stands for this setting: female, C57BL/6, mouse, contralateral normal brain, oral.
Where [16] appears, read: female, C57BL/6, mouse, contralateral normal brain/plasma, oral.
Setting [17] is: female, C57BL/6, mouse, normal brain, oral, 35 mg/kg.

Read-outs that look alike come from different tables or passages of the source. Marks after values point to notes of the source that are not given here.

As for `NC(=O)c1cccc2cn(-c3ccc([C@@H]4CCCNC4)cc3)nc12` [Niraparib], the P-gp substrate status result in data set [1] is listed as “substrates for P-gp”. In addition, the free fraction (fraction unbound) at 4 h, 1 µM in data set [2] (plasma (undiluted)) came out at 0.366; in data set [4] (brain homogenate (diluted 1:4 [5×] in PBS)) it was 0.0295; in data set [4] (cynomolgus monkey, brain homogenate (diluted 1:4 [5×] in PBS)), 0.0361; in data set [4] (plasma (undiluted)), 0.22. For the same compound, the “overall mean Kp, uu, brain, niraparib higher than olaparib” value in data set [3] (all mice (BM and no-BM combined)) is on record as “about 1.2 fold”. Moreover, the Kp at 2 h was 0.214 in data set [3] (setting [6]); 0.171 in data set [3] (setting [9]); 0.193 in data set [3] (setting [11]); 0.893 in data set [5] (setting [14]); 0.08 in data set [5] (female, C57BL/6, mouse, normal brain, oral). The Kp uu at 2 h in data set [3] (setting [7]) came to 0.03; in data set [3] (setting [10]), 0.024; in data set [3] (setting [12]), 0.026; in data set [5] (setting [16]), 0.011. Further, the concentration at 2 h in data set [3] (setting [8]) was found to be 658 ng/g; in data set [3] (setting [13]), 3850 ng/mL. For the same compound, the results for the concentration at 24 h in data set [5] (setting [14]) and in data set [5] (setting [15]) were 436 ng/g and 171 ng/g, respectively. Besides, the Kp at 24 h in data set [5] (female, C57BL/6, mouse, brain tumor, oral, 35 mg/kg) stood at 0.465; in data set [5] (setting [17]), 0.182. In addition, the Kp uu at 24 h in data set [5] (setting [17]) worked out at 0.025.

In the case of `O=C(c1cc(Cc2n[nH]c(=O)c3ccccc23)ccc1F)N1CCN(C(=O)C2CC2)CC1` [Olaparib], in data set [1], the P-gp substrate status result is given as “substrates for P-gp”. Also, the fraction unbound at 4 h, 1 µM in data set [2] (brain homogenate) came out at 0.194; in data set [2] (plasma), 0.301; in data set [4] (CD1, mouse, brain homogenate) it was 0.23. The Kp at 2 h in data set [3] (setting [6]) was 0.102; in data set [3] (setting [9]) it was 0.027; in data set [3] (setting [11]), 0.036; in data set [5] (setting [14]), 0.126; in data set [5] (setting [16]) it was 0.031. Moreover, the Kp uu at 2 h came to 0.047 in data set [3] (setting [7]); 0.015 in data set [3] (setting [10]); 0.022 in data set [3] (setting [12]); 0.02 in data set [5] (female, C57BL/6, mouse, in vivo). Further, the concentration at 2 h in data set [3] (setting [8]) came to 5 ng/g; in data set [3] (setting [13]), 226 ng/mL. In addition, the Fu in data set [4] (CD1, mouse, plasma, 4 h, 1 µM) is recorded as 35.2%. Also, the “Kp, brain” value in data set [5] (2 h since dose, normal brain) worked out at 0.031. The “Brain tumor, mean (SD)” value in data set [5] (24 h since dose, n = 9, olaparib: only three of nine animals had detectable drug levels) was 78 (92)^d ng/g. In data set [5] (setting [15]), this compound yielded a concentration at 24 h of 8 ng/g.

Usually fraction unbound stands for the share of the substance not bound to proteins or other matrix.
